Patent US8476253B2, “Amide derivative” (Daiichi Sankyo Company, Limited, priority 2009, dated 2013)
Counter-ions that a name gives are not always drawn. Like-named read-outs stand apart in the source and are kept apart here.

Columns and labels:
[1] = biological target: T1, human NK2 receptor (Homo sapiens, UniProt P21452); test: Test for binding to human NK2 receptor
T1 construct: expressed in transfected cells; host or cells: COS cells
T1 sequence (P21452 1-398): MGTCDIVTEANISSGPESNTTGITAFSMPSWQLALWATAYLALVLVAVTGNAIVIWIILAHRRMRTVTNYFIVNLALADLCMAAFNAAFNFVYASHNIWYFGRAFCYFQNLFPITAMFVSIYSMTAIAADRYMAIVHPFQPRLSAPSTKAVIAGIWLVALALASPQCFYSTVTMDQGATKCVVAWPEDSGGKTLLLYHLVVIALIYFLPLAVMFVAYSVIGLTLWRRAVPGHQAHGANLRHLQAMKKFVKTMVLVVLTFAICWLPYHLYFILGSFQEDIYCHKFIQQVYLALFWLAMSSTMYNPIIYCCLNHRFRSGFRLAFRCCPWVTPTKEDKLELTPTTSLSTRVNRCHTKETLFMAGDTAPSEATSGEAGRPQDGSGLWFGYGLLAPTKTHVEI
Summary of the method: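 Radioligand binding with [^3H]SR 48968 on cryopreserved COS cells expressing human NK2 receptor (5.0×10^5 cells/mL), in 50 mM Tris-HCl pH 7.4 with BSA, MnCl2 and protease inhibitors. Bound label collected on PEI-treated GF/B filters, counted by liquid scintillation; Ki derived from IC50 and radioligand Kd.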

[2] = biological target: T2, human M3 receptor (Homo sapiens, UniProt P20309); test: Test for binding to human M3 receptor
T2 construct: expressed in transfected cells; host or cells: CHO cells
Summary of the method: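 CHO-cell crude membranes expressing human M3 were incubated with [N-methyl-3H]-(−)-scopolamine methyl chloride in 50 mM Tris-HCl, 0.5 mM EDTA, pH 7.4, for 60 min at room temperature. Bound ligand was collected on PEI-pretreated glass-fibre filters and counted by liquid scintillation. Ki was calculated from IC50 and the radioligand Kd.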

[3] = test system: muscarine M3 receptor; test: Effect of suppressing methacholine-induced airway contraction (in vivo, intratracheal administration); set-up: species or system guinea pig; conditions: guinea pigs, intratracheal administration 60 minutes before 30 μg/kg i.v. methacholine, AUC of increase in airway pressure over 10 minutes
Summary of the method: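 Anesthetized, gallamine-paralysed, ventilated male Hartley guinea pigs (350–550 g); compound in 5% glucose given intratracheally 60 min before 30 μg/kg i.v. methacholine. Airway pressure AUC over 10 min scored; ID50 from inhibition versus 5% glucose vehicle group.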

[4] = COS cells expressing human NK2 receptor, [3H]SR 48968 1 nM, Ki from IC50 and Kd, read-out: Ki
[5] = CHO cells expressing human M3 receptor, [N-methyl-3H]-(-)-Scopolamine methyl chloride 0.5 nM, Ki from IC50 and Kd, read-out: Ki

T2 sequence (P20309 whole entry): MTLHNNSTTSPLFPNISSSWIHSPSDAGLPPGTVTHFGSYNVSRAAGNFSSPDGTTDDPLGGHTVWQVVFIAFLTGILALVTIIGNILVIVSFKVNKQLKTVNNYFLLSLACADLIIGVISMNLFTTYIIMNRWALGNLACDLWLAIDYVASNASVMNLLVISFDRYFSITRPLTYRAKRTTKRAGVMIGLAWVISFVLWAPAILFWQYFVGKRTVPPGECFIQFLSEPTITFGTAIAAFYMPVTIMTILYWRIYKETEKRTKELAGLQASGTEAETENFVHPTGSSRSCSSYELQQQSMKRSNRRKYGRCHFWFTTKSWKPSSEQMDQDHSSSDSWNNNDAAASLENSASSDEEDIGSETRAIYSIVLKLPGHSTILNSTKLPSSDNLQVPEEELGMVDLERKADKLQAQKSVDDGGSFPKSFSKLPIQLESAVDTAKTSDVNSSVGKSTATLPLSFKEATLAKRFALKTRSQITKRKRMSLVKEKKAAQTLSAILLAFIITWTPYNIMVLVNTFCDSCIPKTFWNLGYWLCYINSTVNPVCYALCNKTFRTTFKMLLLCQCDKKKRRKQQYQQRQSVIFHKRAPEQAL

Structure (SMILES) | Ki [1] | Ki [2] | ID50 [3] | Ki [1, 4] | Ki [2, 5] | ID50 ([3]; trihydrochloride)
CN(CCN1CCC(OC(=O)Nc2ccccc2-c2ccccc2)CC1)C(=O)CCCCCCN(C)c1ccc(C(=O)N(C)CCCN(C)C(=O)CO[C@H]2Cc3ccccc3C23CCN(CC[C@@]2(c4ccc(F)cc4)CN(C(=O)c4cc(C(F)(F)F)cc(C(F)(F)F)c4)CO2)CC3)cc1 [Example 40, 1-{2-[{7-[{4-[{3-[({[(2S)-1′-{2-[(5R)-3-[3,5-Bis(trifluoromethyl)benzoyl]-5-(4-fluorophenyl)-1,3-oxazolidin-5-yl]ethyl}-2,3-dihydrospiro[indene-1,4′-piperidin]-2-yl]oxy}acetyl)(methyl)amino]propyl}(methyl)carbamoyl]phenyl}(methyl)amino]heptanoyl}(methyl)amino]ethyl}piperidin-4-yl biphenyl-2-ylcarbamate trihydrochloride] | 0.83 nM | 2 nM | 0.0754 mg/kg |  |  | 
CN(CCN1CCC(OC(=O)Nc2ccccc2-c2ccccc2)CC1)C(=O)CCCCCNc1ccc(C(=O)N(C)CCCN(C)C(=O)CO[C@H]2Cc3ccccc3C23CCN(CC[C@@]2(c4ccc(F)cc4)CN(C(=O)c4cc(C(F)(F)F)cc(C(F)(F)F)c4)CO2)CC3)cc1 [Example 72, 1-(2-{[6-({4-[{3-[({[(2S)-1′-{2-[(5R)-3-[3,5-Bis(trifluoromethyl)benzoyl]-5-(4-fluorophenyl)-1,3-oxazolidin-5-yl]ethyl}-2,3-dihydrospiro[indene-1,4′-piperidin]-2-yl]oxy}acetyl)(methyl)amino]propyl}(methyl)carbamoyl]phenyl}amino)hexanoyl](methyl)amino}ethyl)piperidin-4-yl biphenyl-2-ylcarbamate] |  |  | 0.0635 mg/kg | 0.52 nM | 1.6 nM | 
CN(CCN1CCC(OC(=O)Nc2ccccc2-c2ccccc2)CC1)C(=O)CCCCCNc1ccc(C(=O)N(C)CCCN(C)C(=O)CO[C@H]2Cc3ccccc3C23CCN(CC[C@@]2(c4ccc(F)cc4)CN(C(=O)c4cc(C(F)(F)F)cc(C(F)(F)F)c4)CO2)CC3)nc1 [Example 9, 1-(2-{[6-({6-[{3-[({[(2S)-1′-{2-[(5R)-3-[3,5-Bis(trifluoromethyl)benzoyl]-5-(4-fluorophenyl)-1,3-oxazolidin-5-yl]ethyl}-2,3-dihydrospiro[indene-1,4′-piperidin]-2-yl]oxy}acetyl)(methyl)amino]propyl}(methyl)carbamoyl]pyridin-3-yl}amino)hexanoyl](methyl)amino}ethyl)piperidin-4-yl biphenyl-2-ylcarbamate] |  |  | 0.0164 mg/kg | 0.66 nM | 1.3 nM | 
CN(CCN1CCC(OC(=O)Nc2ccccc2-c2ccccc2)CC1)C(=O)COCCCNc1ccc(C(=O)N(C)CCCN(C)C(=O)CO[C@H]2Cc3ccccc3C23CCN(CC[C@@]2(c4ccc(F)cc4)CN(C(=O)c4cc(C(F)(F)F)cc(C(F)(F)F)c4)CO2)CC3)cc1 [Example 27, 1-{2-[{[3-({4-[{3-[({[(2S)-1′-{2-[(5R)-3-[3,5-Bis(trifluoromethyl)benzoyl]-5-(4-fluorophenyl)-1,3-oxazolidin-5-yl]ethyl}-2,3-dihydrospiro[indene-1,4′-piperidin]-2-yl]oxy}acetyl)(methyl)amino]propyl}(methyl)carbamoyl]phenyl}amino)propoxy]acetyl}(methyl)amino]ethyl}piperidin-4-yl biphenyl-2-ylcarbamate trihydrochloride] | 0.76 nM | 1.4 nM | 0.0218 mg/kg |  |  | 
Cc1nc(NCCCCCC(=O)N(C)CCN2CCC(OC(=O)Nc3ccccc3-c3ccccc3)CC2)sc1C(=O)N(C)CCCN(C)C(=O)CO[C@H]1Cc2ccccc2C12CCN(CC[C@@]1(c3ccc(F)cc3)CN(C(=O)c3cc(C(F)(F)F)cc(C(F)(F)F)c3)CO1)CC2 [Example 105, 1-(2-{[6-({5-[{3-[({[(2S)-1′-{2-[(5R)-3-[3,5-Bis(trifluoromethyl)benzoyl]-5-(4-fluorophenyl)-1,3-oxazolidin-5-yl]ethyl}-2,3-dihydrospiro[indene-1,4′-piperidin]-2-yl]oxy}acetyl)(methyl)amino]propyl}(methyl)carbamoyl]-4-methyl-1,3-thiazol-2-yl}amino)hexanoyl](methyl)amino}ethyl)piperidin-4-yl biphenyl-2-ylcarbamate trihydrochloride] | 0.85 nM | 1.4 nM | 0.04 mg/kg |  |  | 
CN(CCN1CCC(OC(=O)Nc2ccccc2-c2ccccc2)CC1)C(=O)CCCCCNc1ccc(C(=O)N(C)CCN(C)C(=O)CO[C@H]2Cc3ccccc3C23CCN(CC[C@@]2(c4ccc(F)cc4)CN(C(=O)c4cc(C(F)(F)F)cc(C(F)(F)F)c4)CO2)CC3)cc1 [Example 16, 1-(2-{[6-({4-[{2-[({[(2S)-1′-{2-[(5R)-3-[3,5-Bis(trifluoromethyl)benzoyl]-5-(4-fluorophenyl)-1,3-oxazolidin-5-yl]ethyl}-2,3-dihydrospiro[indene-1,4′-piperidin]-2-yl]oxy}acetyl)(methyl)amino]ethyl}(methyl)carbamoyl]phenyl}amino)hexanoyl](methyl)amino}ethyl)piperidin-4-yl biphenyl-2-ylcarbamate trihydrochloride] | 0.49 nM | 2.4 nM |  |  |  | 0.0191 mg/kg
CN(CCN1CCC(OC(=O)Nc2ccccc2-c2ccccc2)CC1)C(=O)CCCCCNc1ncc(C(=O)N(C)CCCN(C)C(=O)CO[C@H]2Cc3ccccc3C23CCN(CC[C@@]2(c4ccc(F)cc4)CN(C(=O)c4cc(C(F)(F)F)cc(C(F)(F)F)c4)CO2)CC3)cn1 [Example 14, 1-(2-{[6-({5-[{3-[({[(2S)-1′-{2-[(5R)-3-[3,5-Bis(trifluoromethyl)benzoyl]-5-(4-fluorophenyl)-1,3-oxazolidin-5-yl]ethyl}-2,3-dihydrospiro[indene-1,4′-piperidin]-2-yl]oxy}acetyl)(methyl)amino]propyl}(methyl)carbamoyl]pyrimidin-2-yl}amino)hexanoyl](methyl)amino}ethyl)piperidin-4-yl biphenyl-2-ylcarbamate trihydrochloride] | 0.67 nM | 0.93 nM | 0.0129 mg/kg |  |  | 
CN(CCN1CCC(OC(=O)Nc2ccccc2-c2ccccc2)CC1)C(=O)CCCCCNc1ccc(N(C)C(=O)CCCN(C)C(=O)CO[C@H]2Cc3ccccc3C23CCN(CC[C@@]2(c4ccc(F)cc4)CN(C(=O)c4cc(C(F)(F)F)cc(C(F)(F)F)c4)CO2)CC3)cc1 [Example 84, 1-(2-{[6-({4-[{-4-[({[(2S)-1′-{2-[(5R)-3-[3,5-Bis(trifluoromethyl)benzoyl]-5-(4-fluorophenyl)-1,3-oxazolidin-5-yl]ethyl}-2,3-dihydrospiro[indene-1,4′-piperidin]-2-yl]oxy}acetyl)(methyl)amino]butanoyl}(methyl)amino]phenyl}amino)hexanoyl](methyl)amino}ethyl)piperidin-4-yl biphenyl-2-ylcarbamate trihydrochloride] | 0.89 nM | 1.2 nM | 0.0143 mg/kg |  |  | 
CN(CCN1CCC(OC(=O)Nc2ccccc2-c2ccccc2)CC1)C(=O)CCCCCNc1nc2ccc(C(=O)N(C)CCCN(C)C(=O)CO[C@H]3Cc4ccccc4C34CCN(CC[C@@]3(c5ccc(F)cc5)CN(C(=O)c5cc(C(F)(F)F)cc(C(F)(F)F)c5)CO3)CC4)cc2s1 [Example 93, 1-(2-{[6-({6-[{3-[({[(2S)-1′-{2-[(5R)-3-[3,5-Bis(trifluoromethyl)benzoyl]-5-(4-fluorophenyl)-1,3-oxazolidin-5-yl]ethyl}-2,3-dihydrospiro[indene-1,4′-piperidin]-2-yl]oxy}acetyl)(methy)amino]propyl}(methyl)carbamoyl]-1,3-benzothiazol-2-yl}amino)hexanoyl](methyl)amino}ethyl)piperidin-4-yl biphenyl-2-ylcarbamate] |  |  | 0.0372 mg/kg | 0.55 nM | 0.6 nM | 
CN(CCN1CCC(OC(=O)Nc2ccccc2-c2ccccc2)CC1)C(=O)CCOCCNc1ccc(C(=O)N(C)CCCN(C)C(=O)CO[C@H]2Cc3ccccc3C23CCN(CC[C@@]2(c4ccc(F)cc4)CN(C(=O)c4cc(C(F)(F)F)cc(C(F)(F)F)c4)CO2)CC3)cc1 [Example 29, 1-{2-[{3-[2-({4-[{3-[({[(2S)-1′-{2-[(5R)-3-[3,5-Bis(trifluoromethyl)benzoyl]-5-(4-fluorophenyl)-1,3-oxazolidin-5-yl]ethyl}-2,3-dihydrospiro[indene-1,4′-piperidin]-2-yl]oxy}acetyl)(methy)amino]propyl}(methyl)carbamoyl]phenyl}amino)ethoxy]propanoyl}(methyl)amino]ethyl}piperidin-4-yl biphenyl-2-ylcarbamate trihydrochloride] |  |  | 0.0266 mg/kg | 0.76 nM | 1.7 nM | 
